Test results reported in patent publication US12077503B2, “Substituted cyclic amides and their use as herbicides” (FMC CORPORATION, priority 2015, dated 2024).

How the values were obtained:
Assay type in all cases: in vivo
[1] = test system: ryegrass, Italian (Italian ryegrass, Lolium multiflorum); test: Test A postemergence; settings: Lolium multiflorum, post-emergence, 240 h, 125 g ai/ha, Postemergence; visual injury after approximately 10 d; 0 to 100 scale where 0 is no effect and 100 is complete control; read-out: Plant response rating, Ryegrass, Italian
How it was run: (§1)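 Treatment is preemergence as a directed soil spray after planting, or postemergence at the one- to two-leaf stage, with test chemical in a non-phytotoxic solvent mixture plus surfactant. Plants stay in the greenhouse about 10 d before visual injury scoring on a 0 to 100 scale versus untreated controls.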

[2] = test system: pigweed (Amaranthus retroflexus); test: Test A postemergence; settings: Amaranthus retroflexus, post-emergence, 240 h, 125 g ai/ha, Postemergence; visual injury after approximately 10 d; 0 to 100 scale where 0 is no effect and 100 is complete control; read-out: Plant response rating, Pigweed
How it was run: as §1

[3] = test system: wheat (Triticum aestivum); test: Test A postemergence; settings: Triticum aestivum, post-emergence, 240 h, 125 g ai/ha, Postemergence; visual injury after approximately 10 d; 0 to 100 scale where 0 is no effect and 100 is complete control; read-out: Plant response rating, Wheat
How it was run: as §1

[4] = test system: giant foxtail (Setaria faberii); test: Test A postemergence; settings: Setaria faberi, post-emergence, 240 h, 125 g ai/ha, Postemergence; visual injury after approximately 10 d; 0 to 100 scale where 0 is no effect and 100 is complete control; read-out: Plant response rating, Foxtail, Giant
How it was run: as §1

[5] = test system: ragweed (common ragweed, Ambrosia elatior); test: Test A postemergence; settings: Ambrosia artemisiifolia, post-emergence, 240 h, 125 g ai/ha, Postemergence; visual injury after approximately 10 d; 0 to 100 scale where 0 is no effect and 100 is complete control; read-out: Plant response rating, Ragweed
How it was run: as §1

[6] = test system: barnyardgrass (Echinochloa crus-galli); test: Test A postemergence; settings: Echinochloa crus-galli, post-emergence, 240 h, 125 g ai/ha, Postemergence; visual injury after approximately 10 d; 0 to 100 scale where 0 is no effect and 100 is complete control; read-out: Plant response rating, Barnyardgrass
How it was run: as §1

[7] = test system: Kochia (Kochia scoparia); test: Test A postemergence; settings: Bassia scoparia, post-emergence, 240 h, 125 g ai/ha, Postemergence; visual injury after approximately 10 d; 0 to 100 scale where 0 is no effect and 100 is complete control; read-out: Plant response rating, Kochia
How it was run: as §1

[8] = test system: blackgrass (Alopecurus myosuroides); test: Test A postemergence; settings: Alopecurus myosuroides, post-emergence, 240 h, 125 g ai/ha, Postemergence; visual injury after approximately 10 d; 0 to 100 scale where 0 is no effect and 100 is complete control; read-out: Plant response rating, Blackgrass
How it was run: as §1

[9] = test system: corn (Zea mays); test: Test A postemergence; settings: Zea mays, post-emergence, 240 h, 125 g ai/ha, Postemergence; visual injury after approximately 10 d; 0 to 100 scale where 0 is no effect and 100 is complete control
How it was run: as §1

[10] = test system: Galium (catchweed bedstraw, Galium aparine); test: Test A postemergence; settings: Galium, post-emergence, 240 h, 125 g ai/ha, Postemergence; visual injury after approximately 10 d; 0 to 100 scale where 0 is no effect and 100 is complete control; read-out: Plant response rating, Galium
How it was run: as §1

[11] = test system: barnyardgrass (Echinochloa crus-galli); test: Test B flooded paddy test; settings: Echinochloa crus-galli, Flood, 250 g ai/ha; scale of 0 to 100 where 0 is no effect and 100 is complete control; read-out: Barnyardgrass plant response rating
How it was run: (§2)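 Visual ratings (0 none to 100 complete control) are relative to untreated plants, taken 13–15 d after treatment in a greenhouse. Test material went straight into floodwater standing 3 cm above the soil, kept constant, on plants at the 2-leaf stage.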

[12] = test system: rice (Oryra sativa); test: Test B flooded paddy test; settings: Oryza sativa, Flood, 250 g ai/ha; scale of 0 to 100 where 0 is no effect and 100 is complete control; read-out: Rice plant response rating
How it was run: as §2

[13] = test system: ducksalad (Heteranthera limosa); test: Test B flooded paddy test; settings: Heteranthera limosa, Flood, 250 g ai/ha; scale of 0 to 100 where 0 is no effect and 100 is complete control; read-out: Ducksalad plant response rating
How it was run: as §2

[14] = test system: sedge, umbrella (small-flower umbrella sedge, Cyperus difformis); test: Test B flooded paddy test; settings: Cyperus difformis, 250 g ai/ha, Flood; 0 to 100 scale where 0 is no effect and 100 is complete control; read-out: Sedge, Umbrella plant response rating
How it was run: as §2

[15] = test system: ryegrass, Italian (Italian ryegrass, Lolium multiflorum); test: Test A preemergence; settings: Lolium multiflorum, pre-emergence, 240 h
How it was run: as §1

[16] = test system: pigweed (Amaranthus retroflexus); test: Test A preemergence; settings: Amaranthus retroflexus, pre-emergence, 240 h
[17] = test system: giant foxtail (Setaria faberii); test: Test A preemergence; settings: Setaria faberi, pre-emergence, 240 h
How it was run: as §1

[18] = test system: ragweed (common ragweed, Ambrosia elatior); test: Test A preemergence; settings: Ambrosia artemisiifolia, pre-emergence, 240 h
How it was run: as §1

[19] = test system: barnyardgrass (Echinochloa crus-galli); test: Test A preemergence; settings: Echinochloa crus-galli, pre-emergence, 240 h
How it was run: as §1

[20] = test system: Kochia (Kochia scoparia); test: Test A preemergence; settings: Bassia scoparia, pre-emergence, 240 h
How it was run: as §1

`COc1ccc([C@H]2CN(C)C(=O)[C@@H]2C(=O)Nc2cccc(F)c2F)cc1C(F)(F)F` [Compound 986] gave a pest or weed control at 125 g/ha [1] of 30%, a pest or weed control at 125 g/ha [2] of 0% and a plant injury at 125 g/ha [3] of 20%. The pest or weed control at 125 g/ha [4] was 90%, the pest or weed control at 125 g/ha [5] was 0% and the pest or weed control at 125 g/ha [6] was 80%. It also gave a pest or weed control at 125 g/ha [7] of 30%, a pest or weed control at 125 g/ha [8] of 40% and a Corn plant response rating (crop injury, 0 = no effect, 100 = complete kill) at 125 g/ha [9] of 80%. For the same molecule, the pest or weed control at 125 g/ha [10] was 30%, the pest or weed control at 250 g/ha [11] was 55% and the pest or weed control at 250 g/ha [12] was 20%. For the same molecule, the pest or weed control at 250 g/ha [13] was 75%, the pest or weed control at 250 g/ha [14] was 0% and the pest or weed control at 125 g/ha ([15]; 125 g ai/ha, Preemergence, visual injury rating after approximately 10 d, read-out: Ryegrass, Italian plant response rating (0 to 100 scale, 0 is no effect, 100 is complete control)) was 60%. It also gave a pest or weed control at 500 g/ha ([15]; 500 g ai/ha, preemergence, visual injury rating about 10 d after treatment, 0 to 100 scale (0 no effect, 100 complete control), read-out: Ryegrass, Italian plant response rating) of 80%, a pest or weed control at 125 g/ha ([16]; 125 g ai/ha, Preemergence, visual injury rating after approximately 10 d, read-out: Pigweed plant response rating (0 to 100 scale, 0 is no effect, 100 is complete control)) of 60% and a pest or weed control at 500 g/ha ([16]; 500 g ai/ha, preemergence, visual injury rating about 10 d after treatment, 0 to 100 scale (0 no effect, 100 complete control), read-out: Pigweed plant response rating) of 70%. It also gave a pest or weed control at 125 g/ha ([17]; 125 g ai/ha, Preemergence, visual injury rating after approximately 10 d, read-out: Foxtail, Giant plant response rating (0 to 100 scale, 0 is no effect, 100 is complete control)) of 100%, a pest or weed control at 500 g/ha ([17]; 500 g ai/ha, preemergence, visual injury rating about 10 d after treatment, 0 to 100 scale (0 no effect, 100 complete control), read-out: Foxtail, Giant plant response rating) of 100% and a pest or weed control at 125 g/ha ([18]; 125 g ai/ha, Preemergence, visual injury rating after approximately 10 d, read-out: Ragweed plant response rating (0 to 100 scale, 0 is no effect, 100 is complete control)) of 50%. For the same molecule, the pest or weed control at 500 g/ha ([18]; 500 g ai/ha, preemergence, visual injury rating about 10 d after treatment, 0 to 100 scale (0 no effect, 100 complete control), read-out: Ragweed plant response rating) was 70%, the pest or weed control at 125 g/ha ([19]; 125 g ai/ha, Preemergence, visual injury rating after approximately 10 d, read-out: Barnyardgrass plant response rating (0 to 100 scale, 0 is no effect, 100 is complete control)) was 90% and the pest or weed control at 500 g/ha ([19]; 500 g ai/ha, preemergence, visual injury rating about 10 d after treatment, 0 to 100 scale (0 no effect, 100 complete control), read-out: Barnyardgrass plant response rating) was 90%. For the same molecule, the pest or weed control at 125 g/ha ([20]; 125 g ai/ha, Preemergence, visual injury rating after approximately 10 d, read-out: Kochia plant response rating (0 to 100 scale, 0 is no effect, 100 is complete control)) was 30% and the pest or weed control at 500 g/ha ([20]; 500 g ai/ha, preemergence, visual injury rating about 10 d after treatment, 0 to 100 scale (0 no effect, 100 complete control), read-out: Kochia plant response rating) was 70%.
